Test results reported in patent publication US4816447A, “Anti-viral guanine compounds” (priority 1984, dated 1989).
Where two headings read alike, the source gives them in different places.

Legend:
HSV-1 WT = assay: 50% plaque reduction of HSV-1 wild type in 3T3 TK- and 3T3 TK-/TK+HSV cells (Table VIII)
HSV-1 (383R1) = assay: Protection of mice against intraperitoneal infection with HSV-1 (383R1) (Table IX); format: in vivo, HSV-1; mice
Protocol: (§1) 1. […] Groups of mice infected intraperitoneally with increasing doses of HSV-1 or HSV-1 (383R1) were treated twice daily subcutaneously for 4 days with either the Cyclic Monophosphate or the compound of Formula II. Mean survival times of treated mice were compared.

HSV-1 = assay: Orofacial HSV-1 infection of hairless mice, oral or topical treatment (Table VI); format: in vivo, HSV-1; HRS mice; details: for minimal effective dose: Human alphaherpesvirus 1, oral treatment, read-out: Min. Effective Dose; for minimal effective dose / Min. Effective Dose: orofacial infection; for Min. Effective Dose: topical treatment
HSV-2 TS6 = assay: microbe, parasite or virus in culture; details: Human alphaherpesvirus 2, read-out: ED50
[1] = system: HSV-1 wild type (Schooler); assay: Protection of mice against intraperitoneal infection with HSV-1 (Table IX); format: in vivo, HSV-1; mice
Protocol: as §1

SV40 = assay: Plaque inhibition, SV40 on CV-1 cells (Table V); format: cell-based, SV40; CV-1 (monkey) cells
Protocol: (§2) ED50 values developed for the cyclic monophosphate are compared on a weight basis to those established for the compound of Formula II and acyclovir.
SV40 was assayed on CV-1 (monkey) cell cultures.

HSV-1 383R1 = format: cell-based, HSV-1 (383R1); NIH 3T3 mouse cells; details: for EC50: Human alphaherpesvirus 1, in Mus musculus
Adeno Type 2 = assay: Plaque inhibition, Adeno Type 2 on BSC cells (Table V); format: cell-based, Adeno Type 2; BSC (monkey) cells
Protocol: as §2
Adeno Type 2 was assayed on BSC (monkey) cell cultures.

[2] = system: Herpes simplex virus type 2; assay: Tube dilution assay, viral cytopathology of HSV-2 in rabbit kidney cell cultures; details: Human alphaherpesvirus 2, in Oryctolagus cuniculus, read-out: Minimum Effective Concentration
[3] = system: Herpes simplex virus type 1; assay: Tube dilution assay, viral cytopathology of HSV-1 in rabbit kidney cell cultures; details: Human alphaherpesvirus 1, in Oryctolagus cuniculus, read-out: Minimum Effective Concentration, Strain Schooler
[4] = system: Herpes simplex virus type 1 (Strain S); assay: Orofacial Herpes simplex virus type 1 infection in mice, oral treatment (Table XIII); format: in vivo, Herpes simplex virus type 1; HRS (hairless) mice; details: for Lesion Incidence (%) / Lesion Incidence (number/Total) / Lesion Severity (scale 0 to 4): 7 days
Protocol: Twenty grams HRS (hairless) mice were infected on the abraded orofacial area with Herpes simplex virus type 1 (Strain S). […] At 7 days after initiation of infection, the extent of lesion development in the orofacial area was measured on a scale of 0 (no lesions) to 4 (massive lesions over the entire snout).

[5] = system: Herpes simplex virus type 1 (Strain S); assay: Orofacial Herpes simplex virus type 1 infection in mice, therapeutic oral treatment (Table XIV); format: in vivo, Herpes simplex virus type 1; HRS (hairless) mice; details: for Lesion Incidence (%) / Lesion Incidence (number/Total) / Lesion Severity (scale 0 to 4): 12.5 mg/kg/day oral
Protocol: Twenty gram HRS (hairless) mice were infected on the abraded orofacial area with Herpes simplex virus type 1 (Strain S).
a. Groups of 10 infected animals were treated twice daily by oral gavage for up to 7 days with the compound of formula II at 12.5 mg/kg/day, starting 3, 8, 12, 24, 48, 72, or 96 hours after infection. […]
At 7 days after initiation of infection, the extent of lesion development in the orofacial area was measured on a scale of 0 (no lesions) to 4 (massive lesions over the entire snout).

Epstein-Barr virus (EBV) = assay: Human cord blood lymphocyte transformation assay; format: cell-based, Epstein-Barr (B95-8); human cord blood lymphocytes; details: human gammaherpesvirus 4, B-95-8; B95-8, lymphocyte transformation; read-out: Minimum Effective Concentration
Text: ^c Human cord blood lymphocyte transformation assay.

[6] = system: Herpes simplex virus type 2 (Strain Curtis); assay: Vaginal Herpes simplex virus type 2 infection in mice, oral treatment (Table XII); format: in vivo, Herpes simplex virus type 2; ICR/Ha female mice; details: for Percent Survival: at 19 days
Protocol: Groups of 10 animals were treated twice daily for ten days by oral gavage using acycloquanosine or the compound of formula II at final daily doses of 50, 12.5, 3.1, 0.8 or 0.2 mg/kg starting immediately following infection. The average number of days to infection and the average days of survival were determined for each group and compared to an infected, placebo-treated group.

Nc1nc2c(ncn2COC2COP(=O)(O)OC2)c(=O)[nH]1 (stereo not drawn) [Cyclic Monophosphate, Potassium 9-(1,3-dihydroxy-2-propoxymethyl)guanine cyclic monophosphate]
susceptibility of HSV-1 greater than HSV-1 (383R1) (HSV-1 WT): about 5 fold
EC50 (HSV-1 WT; Human alphaherpesvirus 1, in Mus musculus, read-out: Antiviral Concentration, 50% plaque reduction): 0.2 µg/mL
Mean Survival Time (± SD) (HSV-1 (383R1); HSV-1 (383R1), s.c. twice daily, 4 days): 13.42 (0.82)
efficacy against HSV-1 (383R1) relative to wild type HSV-1 (HSV-1 (383R1); mouse, in vivo): equally effective
minimal effective dose (HSV-1): 3.1 mg/kg/day
efficacy relative to acyclovir by minimum effective dose (HSV-1; orofacial): consistently more efficacious than acyclovir
Min. Effective Dose (HSV-1): 0.06%
EC50 (HSV-2 TS6): 0.4 µg/mL
Mean Survival Time (± SD) ([1]; HSV-1, s.c. twice daily, 4 days): 12.65 (0.84)
protective efficacy over a 10^6 -fold virus challenge range ([1]; HSV-1 or HSV-1 (383R1)): no significant difference in protective efficacy
EC50 (SV40; Primates, read-out: ED50, concentration required for 50% plaque inhibition, SV40, CV-1): 6 µg/mL
inhibition of DNA virus (SV40; SV40): inhibitory
antiviral activity on 3T3 TK^- /TK^+HSV vs 3T3 TK^- cells (HSV-1 383R1; HSV-1 (383R1)): equivalent
EC50 (HSV-1 383R1; read-out: Antiviral Concentration, 50% plaque reduction, HSV-1 383R1, 3T3 TK^- /TK^+HSV cells): 1 µg/mL
EC50 (HSV-1 383R1; read-out: Antiviral Concentration, 50% plaque reduction, HSV-1 383R1, 3T3 TK^- cells): 1 µg/mL
EC50 (Adeno Type 2; Primates, read-out: ED50, concentration required for 50% plaque inhibition, Adeno Type 2, BSC): 3 µg/mL
inhibition of DNA virus (Adeno Type 2; adenovirus): inhibitory

Nc1nc2c(ncn2COCCO)c(=O)[nH]1 [Acycloguanosine, 9-(2-hydroxyethoxymethyl)guanine, reference compound]
minimal effective dose (HSV-1): 12.5 mg/kg/day
Min. Effective Dose (HSV-1): 0.25-1.0%
minimal effective concentration [2]: 1 to 3 µg/mL
minimal effective concentration [3]: 1 to 3 µg/mL
Lesion Incidence (%) ([4]; 0.8 mg/kg/day oral): 88%
Lesion Incidence (number/Total) ([4]; 0.8 mg/kg/day oral): 7/8
Lesion Severity (scale 0 to 4) ([4]; 0.8 mg/kg/day oral): 3.11
Lesion Incidence (%) ([4]; 3.1 mg/kg/day oral): 100%
Lesion Incidence (number/Total) ([4]; 3.1 mg/kg/day oral): 6/6
Lesion Severity (scale 0 to 4) ([4]; 3.1 mg/kg/day oral): 3.25
Lesion Incidence (%) ([4]; 12.5 mg/kg/day oral): 100%
Lesion Incidence (number/Total) ([4]; 12.5 mg/kg/day oral): 6/6
Lesion Severity (scale 0 to 4) ([4]; 12.5 mg/kg/day oral): 2.67
Lesion Incidence (%) ([4]; 50 mg/kg/day oral): 14%
Lesion Incidence (number/Total) ([4]; 50 mg/kg/day oral): 1/7
incidence of lesions vs placebo ([4]; only at 50 mg/kg): statistically significant protection
extent of lesion development vs placebo ([4]; only at 50 and 12.5 mg/kg): statistically significant protection
Lesion Incidence (%) ([5]; start 3 hours post infection): 100%
Lesion Incidence (number/Total) ([5]; start 3 hours post infection): 10/10
Lesion Severity (scale 0 to 4) ([5]; start 3 hours post infection): 2.80
Lesion Incidence (%) ([5]; start 8 hours post infection): 100%
Lesion Incidence (number/Total) ([5]; start 8 hours post infection): 10/10
Lesion Severity (scale 0 to 4) ([5]; start 8 hours post infection): 2.95
Lesion Incidence (%) ([5]; start 12 hours post infection): 90%
Lesion Incidence (number/Total) ([5]; start 12 hours post infection): 9/10
Lesion Severity (scale 0 to 4) ([5]; start 12 hours post infection): 3.30
Lesion Incidence (%) ([5]; start 24 hours post infection): 90%
Lesion Incidence (number/Total) ([5]; start 24 hours post infection): 9/10
Lesion Severity (scale 0 to 4) ([5]; start 24 hours post infection): 2.85
Lesion Incidence (%) ([5]; start 48 hours post infection): 80%
Lesion Incidence (number/Total) ([5]; start 48 hours post infection): 8/10
Lesion Severity (scale 0 to 4) ([5]; start 48 hours post infection): 2.85
Lesion Incidence (%) ([5]; start 72 hours post infection): 90%
Lesion Incidence (number/Total) ([5]; start 72 hours post infection): 9/10
Lesion Severity (scale 0 to 4) ([5]; start 72 hours post infection): 3.60
Lesion Incidence (%) ([5]; start 96 hours post infection): 100%
Lesion Incidence (number/Total) ([5]; start 96 hours post infection): 7/7
Lesion Severity (scale 0 to 4) ([5]; start 96 hours post infection): 4.00
incidence of lesions vs placebo ([5]; all start times): None of the acycloguanosine treated groups had a significantly lower incidence of lesions
lesion scores vs placebo ([5]; only start 3 hours after infection): statistically different in lesion score
minimal effective concentration (Epstein-Barr virus (EBV)): 10 to 100 µg/mL
Avg. Survival Time ([6]; 0.2 mg/kg/day oral): 8.8 days
Percent Survival ([6]; 0.2 mg/kg/day oral): 0%
Percent Survival ([6]; 0.8 mg/kg/day oral): 10%
Percent Survival ([6]; 3.1 mg/kg/day oral): 20%
Avg. Survival Time ([6]; 12.5 mg/kg/day oral): 14.1 days
Percent Survival ([6]; 12.5 mg/kg/day oral): 40%
number of days to infection vs placebo ([6]; 50 mg/kg and 12.5 mg/kg): statistically significant increases in the number of days to infection
Avg. Survival Time ([6]; 50 mg/kg/day oral): 17.6 days
Percent Survival ([6]; 50 mg/kg/day oral): 60%
survival time vs placebo ([6]; 50 and 12.5 mg/kg): similarly effective
survival vs placebo ([6]; only 50 mg/kg): statistically significant enhanced survival
